The numbers were not newly measured in US20160193372A1, “METHODS OF IDENTIFYING SURROGATE IMAGING AGENTS FOR ALPHA EMITTER RADIOPHARMACEUTICALS AND THEIR USE IN TREATMENT OF DISEASE” (THE JOHNS HOPKINS UNIVERSITY, priority 2012, published 2016), which cites them from elsewhere.

This series relates to mineralizing or proliferating bone matrix. As to conditions: very high administered activities.

For the substance ^153Sm-EDTMP, the “pain effect in OS” value is listed as “pain palliation” and the “therapeutic efficacy in OS” value is listed as “minimal therapeutic efficacy”.
